Assay results from patent publication US12187709B2 (Genentech, Inc., priority 2021, dated 2025).

Assays:
[1] = target: Cbl-b (Homo sapiens (Human), UniProt Q13191); assay: Cbl-b LCK Ub TR-FRET assay (Cbl-b Lck HTRF); type: biochemical; details: for IC50: Cbl-b LCK Ub TR-FRET; for fold-selectivity (Cbl-b over C-cbl): ratio C-cbl Lck HTRF IC50 / Cbl-b Lck HTRF IC50
Protocol: (§1) 6 μL of detection mixture was added to all wells and briefly centrifuged before incubating for 20 min at room temperature. […] IC50 was generated using no LCK as the low control and DMSO as the high control.

[2] = target: c-Cbl (Homo sapiens (Human), UniProt P22681); assay: C-Cbl LCK Ub TR-FRET assay (C-cbl Lck HTRF); type: biochemical
Protocol: as §1

[3] = target: Human Cbl-b (residues 40-426) (Homo sapiens (Human), UniProt Q13191); assay: Cbl-b SPR assay; type: binding; details: C-cbl SPR Kd vs Cbl-b SPR Kd
Protocol: Affinity of binding to Cbl-b and c-Cbl for compounds described herein was assessed by surface plasmon resonance (SPR) according to the following protocol.
A surface capture range of 1300-1500 RU of protein was used for both isoforms.
For SPR measurements, 6 concentrations with 2 fold serial dilution were measured with blanks flanking each series for double referencing. […] SPR sensorgrams were recorded in multi-cycle kinetics format, with a contact time of 60 seconds and a flow rate of 40 μl/min, the dissociation time was varied between 120-1200 seconds aiming for 4-5 half-lives of the measured interaction.
Kinetic and affinity parameters were extracted from the multicycle kinetics data fitting to a 1:1 binding model using the Biacore™ Incyte evaluation software (Cytiva).
Chaser assay utilize a single cycle kinetics SPR experiment with a contact time of 120 seconds, a flow rate of 50 μl/min and a dissociation time of 450 seconds. Single cycle kinetics titration utilized an initial blank injection and 5 concentrations with 2 fold serial dilution with a maximum concentration of 500 nM, blanked to a preceding 6 point blank single cycle kinetics injection for double referencing.
The kd is measured independently by determining the percentage unoccupied compound binding site over time by measuring the binding of a chaser compound measured by SPR.
Chaser binding was measured by a multicycle kinetics SPR experiment using a contact time of 20 seconds, a flow rate of 30 μl/min, and a dissociation time of 120 seconds. […] The % compound bound at a given time was determined by comparison to a single injection of chaser preceding the single cycle kinetics titration defined below. % Compound Bound=(1−(RUT/RUT0))*100
The % compound bound is plotted against time in seconds and fit to a single exponential, where the exponent represents the kd of the compound-protein complex. The single cycle kinetics experiment of the compound is then fit with a fixed kd determined using the chaser.

Sequence of c-Cbl (P22681 47-435): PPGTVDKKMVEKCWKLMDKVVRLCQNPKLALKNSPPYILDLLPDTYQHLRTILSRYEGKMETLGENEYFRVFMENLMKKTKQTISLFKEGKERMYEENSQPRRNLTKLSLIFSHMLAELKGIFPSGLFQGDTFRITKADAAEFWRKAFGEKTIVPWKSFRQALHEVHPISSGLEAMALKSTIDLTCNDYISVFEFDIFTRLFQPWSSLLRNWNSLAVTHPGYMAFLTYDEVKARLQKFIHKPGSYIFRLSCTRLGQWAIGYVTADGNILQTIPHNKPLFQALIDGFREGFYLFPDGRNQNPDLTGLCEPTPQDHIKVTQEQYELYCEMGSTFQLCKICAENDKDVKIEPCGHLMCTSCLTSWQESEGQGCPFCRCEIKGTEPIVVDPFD
Sequence of Cbl-b (Q13191 40-426): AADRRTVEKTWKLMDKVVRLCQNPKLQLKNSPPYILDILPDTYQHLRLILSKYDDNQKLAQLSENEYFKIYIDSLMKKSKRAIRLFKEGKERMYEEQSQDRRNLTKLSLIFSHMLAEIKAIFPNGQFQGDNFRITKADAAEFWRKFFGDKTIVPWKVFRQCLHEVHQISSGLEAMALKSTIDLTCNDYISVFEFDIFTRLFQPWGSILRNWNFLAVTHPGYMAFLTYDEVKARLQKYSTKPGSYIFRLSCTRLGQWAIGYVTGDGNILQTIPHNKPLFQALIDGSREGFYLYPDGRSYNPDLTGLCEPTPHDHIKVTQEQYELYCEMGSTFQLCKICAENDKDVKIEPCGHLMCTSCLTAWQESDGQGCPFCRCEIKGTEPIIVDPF
Sequence of Human Cbl-b (residues 40-426) (Q13191 40-426): as above

| Compound | IC50 [1] [nM] | fold-selectivity (Cbl-b over C-cbl) [1] | IC50 [2] [nM] | Fold of selectivity [3] [×] | IC50 ([1]; Example 121) [nM] |
| --- | --- | --- | --- | --- | --- |
| CC(C)[C@H]1CN(C)CCN1Cc1cc2c(c(C(F)(F)F)c1)CN(c1cccc([C@@H](c3nncn3C)C3COC3)c1)C2=O (single isomer, unassigned) [Compound 10] | 12 | (2.0x) | 24 |  |  |
| CC(C)[C@H]1CN(C)CCN1Cc1cc2c(c(C(F)(F)F)c1)CN(c1cccc([C@H](c3nncn3C)C3COC3)c1)C2=O (single isomer, unassigned) [Compound 11] | 5100 | (3.9x) | ≥ 20000 |  |  |
| Cn1cnnc1[C@H](c1cccc(N2Cc3c(cc(CNC4(C)CCC4)cc3C(F)(F)F)C2=O)c1)N1CCC1 (single isomer, unassigned) [Compound 32] | 3800 | (5.3x) | 20000 |  |  |
| Cn1cnnc1[C@@H](c1cccc(N2Cc3c(cc(CNC4(C)CCC4)cc3C(F)(F)F)C2=O)c1)N1CCC1 (single isomer, unassigned) [Compound 33] | 150 | (4.8x) | 720 |  |  |
| CO[C@H](c1cccc(N2Cc3c(cc(CNC4(C)CCC4)cc3C(F)(F)F)C2=O)c1)c1nncn1C (single isomer, unassigned) [Compound 42] | 180 | (1.5x) | 270 |  |  |
| Cn1cnnc1[C@H](c1cccc(N2Cc3c(cc(CNC4(C)CCC4)cc3C(F)(F)F)C2=O)c1)C1CCOCC1.O=CO (single isomer, unassigned) [Compound 291] |  | 4.3x |  | 2.1 |  |
| Cn1cnnc1[C@@H](C[C@H]1COCCO1)c1cccc(N2Cc3c(cc(CNC4(C)CCC4)cc3C(F)(F)F)C2=O)c1 (single isomer, unassigned) [Compound 295, 2-(3-((S)-2-((S)-1,4-dioxan-2-yl)-1-(4-methyl-4H-1,2,4-triazol-3-yl)ethyl)phenyl)-6-(((1-methylcyclobutyl)amino)methyl)-4-(trifluoromethyl)isoindolin-1-one] | ≥ 20000 |  |  |  |  |
| CC1(NCc2cc3c(c(C(F)(F)F)c2)CN(c2cccc([C@@H](C4COC4)n4ccnn4)c2)C3=O)CCC1 (single isomer, unassigned) [Compound 436, (R)-6-(((1-methylcyclobutyl)amino)methyl)-2-(3-(oxetan-3-yl(1H-1,2,3-triazol-1-yl)methyl)phenyl)-4-(trifluoromethyl)isoindolin-1-one] |  |  |  |  | 570 |
| Cn1cnnc1[C@]1(c2cc(NC3CCCCC3)nc(N3Cc4c(cc(CNC5(C)CCC5)cc4C(F)(F)F)C3=O)c2)C[C@@H](C)C1 [Compound 50, 2-(6-(cyclohexylamino)-4-((1r,3r)-3-methyl-1-(4-methyl-4H-1,2,4-triazol-3-yl)cyclobutyl)pyridin-2-yl)-6-(((1-methylcyclobutyl)amino)methyl)-4-(trifluoromethyl)isoindolin-1-one] | 31 | (1.7x) |  | 3.0 |  |
| Cn1cnnc1[C@]1(c2cc(NC3CCCCC3)nc(N3Cc4c(cc(CNC5(C)CCC5)cc4C(F)(F)F)C3=O)c2)C[C@H](C)C1 [Compound 51, 2-(6-(cyclohexylamino)-4-((1s,3s)-3-methyl-1-(4-methyl-4H-1,2,4-triazol-3-yl)cyclobutyl)pyridin-2-yl)-6-(((1-methylcyclobutyl)amino)methyl)-4-(trifluoromethyl)isoindolin-1-one] | 38 | (1.6x) |  |  |  |
| Cn1cnnc1[C@]1(c2cc(NC3CCCC3)nc(N3Cc4c(cc(CNC5(C)CCC5)cc4C(F)(F)F)C3=O)c2)C[C@@H](C)C1 [Compound 52, 2-(6-(cyclopentylamino)-4-((1r,3r)-3-methyl-1-(4-methyl-4H-1,2,4-triazol-3-yl)cyclobutyl)pyridin-2-yl)-6-(((1-methylcyclobutyl)amino)methyl)-4-(trifluoromethyl)isoindolin-1-one] | 7.2 | (1.3x) |  | 11 |  |
| Cn1cnnc1[C@]1(c2cc(NC3CCCC3)nc(N3Cc4c(cc(CNC5(C)CCC5)cc4C(F)(F)F)C3=O)c2)C[C@H](C)C1 [Compound 53, 2-(6-(cyclopentylamino)-4-((1s,3s)-3-methyl-1-(4-methyl-4H-1,2,4-triazol-3-yl)cyclobutyl)pyridin-2-yl)-6-(((1-methylcyclobutyl)amino)methyl)-4-(trifluoromethyl)isoindolin-1-one] | 5.7 | (1.1x) |  | 9.2 |  |
| Cn1cnnc1[C@]1(c2cc(OC3CCCC3)nc(N3Cc4c(cc(CNC5(C)CCC5)cc4C(F)(F)F)C3=O)c2)C[C@H](C)C1 [Compound 54, 2-(6-(cyclopentyloxy)-4-((1s,3s)-3-methyl-1-(4-methyl-4H-1,2,4-triazol-3-yl)cyclobutyl)pyridin-2-yl)-6-(((1-methylcyclobutyl)amino)methyl)-4-(trifluoromethyl)isoindolin-1-one] | 8.2 | (1.4x) |  | 11 |  |
| Cn1cnnc1[C@]1(c2cc(OC3CCCC3)nc(N3Cc4c(cc(CNC5(C)CCC5)cc4C(F)(F)F)C3=O)c2)C[C@@H](C)C1 [Compound 55, 2-(6-(cyclopentyloxy)-4-((1r,3r)-3-methyl-1-(4-methyl-4H-1,2,4-triazol-3-yl)cyclobutyl)pyridin-2-yl)-6-(((1-methylcyclobutyl)amino)methyl)-4-(trifluoromethyl)isoindolin-1-one] | 6.7 | (1.4x) |  |  |  |

Results, then the compound that gave them:

| IC50 [1] [nM] | fold-selectivity (Cbl-b over C-cbl) [1] | IC50 [2] [nM] | Fold of selectivity [3] [×] | IC50 ([1]; Example 121) [nM] | Compound |
| --- | --- | --- | --- | --- | --- |
| 8300 | (1.7x) | 14100 |  |  | Cn1cnnc1[C@](O)(c1cccc(N2Cc3c(cc(CNC4(C)CCC4)cc3C(F)(F)F)C2=O)c1)C1CCC1 (single isomer, unassigned) [Compound 1] |
| 6.6 | (1.5x) | 9.9 |  |  | C[C@H](NC1CCC1)c1cc2c(c(C(F)(F)F)c1)CN(c1cccc(C3(c4nncn4C)CC(F)(F)C3)c1)C2=O (single isomer, unassigned) [Compound 37] |
| 11 | (2.9x) | 32 |  |  | C[C@@H](NC1CCC1)c1cc2c(c(C(F)(F)F)c1)CN(c1cccc(C3(c4nncn4C)CC(F)(F)C3)c1)C2=O (single isomer, unassigned) [Compound 38] |
| 470 | (1.2x) | 560 |  |  | CO[C@@H](c1cccc(N2Cc3c(cc(CNC4(C)CCC4)cc3C(F)(F)F)C2=O)c1)c1nncn1C (single isomer, unassigned) [Compound 43] |
| 4200 | (2.4x) | 10000 |  |  | Cn1cnnc1[C@@H](OC1CC1)c1cccc(N2Cc3c(cc(CNC4(C)CCC4)cc3C(F)(F)F)C2=O)c1 (single isomer, unassigned) [Compound 44] |
| 290 | (1.4x) | 410 |  |  | Cn1cnnc1[C@H](OC1CC1)c1cccc(N2Cc3c(cc(CNC4(C)CCC4)cc3C(F)(F)F)C2=O)c1 (single isomer, unassigned) [Compound 45] |
| ≥ 20000 | (1.0x) | 20000 |  |  | Cn1cnnc1[C@@H](OC1CCC1)c1cccc(N2Cc3c(cc(CNC4(C)CCC4)cc3C(F)(F)F)C2=O)c1 (single isomer, unassigned) [Compound 46] |
| ≥ 20000 | 1.0x |  |  |  | CO[C@@](c1cccc(N2Cc3c(cc(CNC4(C)CCC4)cc3C(F)(F)F)C2=O)c1)(c1nncn1C)C1CCC1 (single isomer, unassigned) [Compound 118] |
| 55 |  |  |  |  | Cn1cnnc1[C@H](c1cccc(N2Cc3c(cc(CNC4(C)CCC4)cc3C(F)(F)F)C2=O)c1)[C@H]1C[C@H](C)C1 (single isomer, unassigned) [Compound 376] |
| 5.5 |  |  |  |  | CCNc1cc(C2(c3nncn3C)CC(F)(F)C2)cc(N2Cc3c(cc(CNC4(C)CCC4)cc3C(F)(F)F)C2=O)n1 [Compound 62, 2-(4-(3,3-difluoro-1-(4-methyl-4H-1,2,4-triazol-3-yl)cyclobutyl)-6-(ethylamino)pyridin-2-yl)-6-(((1-methylcyclobutyl)amino)methyl)-4-(trifluoromethyl)isoindolin-1-one] |
| ≥ 20000 | 1.0x |  |  |  | CC(=O)N1CC(c2cccc(N3Cc4c(cc(CNC5(C)CCC5)cc4C(F)(F)F)C3=O)c2)(c2nncn2C)C1 [Compound 112, 2-(3-(1-acetyl-3-(4-methyl-4H-1,2,4-triazol-3-yl)azetidin-3-yl)phenyl)-6-(((1-methylcyclobutyl)amino)methyl)-4-(trifluoromethyl)isoindolin-1-one] |
